From patent US9393228B2, “Combination of a slow sodium current blocker and a sinus If current inhibitor, and the pharmaceutical compositions containing said combination” (PIERRE FABRE MEDICAMENT, priority 2013, dated 2016)
Structures can show the parent of a compound that is named as a salt.

Test system: anesthetized rabbits
Assay: ST segment elevation by occlusion of the circumflex coronary artery in anesthetized rabbits (anti-ischemic activity, with blood pressure and heart rate)
Type: in vivo, rabbit
Details: for Heart rate / Mean blood pressure: 5 minutes after i.v. administration; for Heart rate / Mean blood pressure / effect on heart rate (in words): compound B 0.63 mg/kg; for effect on ST segment elevation (in words): i.v. slow bolus, compound A 0.04 mg/kg or compound B 0.63 mg/kg, 5 min before 5 min circumflex occlusion
Protocol: The anti-ischemic activity of 3-(R)-[3-(2-methoxyphenylthio)-2-(S)-methyl-propyl]amino-3,4-dihydro-2H-1,5-benzoxathiepine combined with ivabradine was evaluated in a model of ST segment elevation by occlusion of the circumflex coronary artery in anesthetized rabbits.
Male rabbits (2.2-2.5 kg) are anesthetized with pentobarbital. A catheter is placed in a carotid artery in order to continuously measure the animal's blood pressure. Blood samples are taken in order to regularly check blood gases and to modify ventilation parameters as needed. The compounds to be tested or the carriers are administered via a catheter placed in an ear vein. An electrocardiogram is recorded, also continuously, in configuration II in order to determine the variations of amplitude of the ST segment. The animal's thorax is opened and a ligature is placed around the left coronary artery (circumflex) in order to induce regional myocardial ischemia (Verscheure et al., 1995). After a period of stabilization of all hemodynamic parameters, the compounds are administered in a slow bolus (1 minute). Five minutes after the compounds are administered, the circumflex artery is occluded for 5 minutes and then the ligature is released. The heart is removed and the risk area (ligatured region of the circumflex artery) is evaluated. Four groups of rabbits are studied: • group receiving carrier: 40% polyethylene 300, 60% physiological saline; • group receiving 3-(R)-[3-(2-methoxyphenylthio)-2-(S)-methyl-propyl]amino-3,4-dihydro-2H-1,5-benzoxathiepine (compound A) at a dose of 0.04 mg/kg; • group receiving ivabradine hydrochloride (compound B) at a dose of 0.63 mg/kg; • group receiving compound A (0.04 mg/kg)+compound B (0.63 mg/kg).
The doses were selected in order to have submaximal pharmacological activities and thus to uncover potential additive or synergistic effects.

SMILES	Heart rate (compound A 0.04 mg/kg) [bpm]	Mean blood pressure (compound A 0.04 mg/kg) [mmHg]	effect on ST segment elevation (in words)	effect on heart rate (in words) (i.v., compound A 0.04 mg/kg)	effect on blood pressure (in words) (i.v., compound A 0.04 mg/kg)
COc1cc2c(cc1OC)CC(=O)N(CCCN(C)C[C@H]1Cc3cc(OC)c(OC)cc31)CC2 [Compound B, ivabradine hydrochloride, reference compound]	211 ± 10	92 ± 3	lower ST segment elevation	relatively significant and constant bradycardia	–
COc1ccccc1SC[C@@H](C)CN[C@@H]1COc2ccccc2SC1 [Compound A, 3-(R)-[3-(2-methoxyphenylthio)-2-(S)-methyl-propyl]amino-3,4-dihydro-2H-1,5-benzoxathiepine]	275 ± 10	92 ± 4	slight inhibition	without changing	without changing
